How the values were obtained:
[1] = tested on: MMA Patient fibroblasts (GM01673); test: Mitochondrial morphology imaging in MMA patient fibroblasts (GM01673); type: cell-based; conditions: image compared with fragmented mitochondria in vehicle control
[2] = tested on: CD14+ monocytes differentiated to M1 macrophages; test: M1 differentiation assay (macrophage cytokine secretion, ELISA); type: cell-based, human; conditions: 10 uM
Experimental: Monocytes were isolated by positive isolation with CD14+ microbeads (Miltenyi, 130-050-201). Monocytes were 99% viable and were 96% purity as analyzed by FACS and CD14±(BD, 563561). 100,000 monocytes along with compounds at the dose of 10 and 50 μM were allowed to differentiate to macrophages with 10 ng/ml GMCSF (R&D,15-GM-050/CF) in RPMI complete media (Invitrogen, 22400089) with 15% FBS (Hyclone SV30087.03) and 1% Penicillin-Streptomycin (Gibco, 15140-122). On day 2 and 4 half the media was refreshed with fresh GM-CSF and compounds at 10 and 50 μM dose. On day 6 the macrophages were matured with GMCSF, IFN, (R&D 285-IF-100/CF) and LPS (Sigma, L6143) in the presence of 10 μM and 50 μM of compounds. After 24h, supernatant was collected for the measurement of TNFα (DKW, 1117202), IL6 (DKW, 1110602), IL10 (DKW, 1110003) by ELISA. Macrophages were detached gently on ice with EDTA (Invitrogen, 15575-038) and analyzed by FACS (BD LSR Fortessa, 853492). […]

[3] = tested on: MMA Patient fibroblasts (TSI 3739); test: Mitochondrial morphology imaging in MMA patient fibroblasts (TSI 3739); type: cell-based; conditions: image compared with fragmented mitochondria in vehicle control
[4] = tested on: MMA Patient fibroblasts (GM00371); test: Mitochondrial morphology imaging in MMA patient fibroblasts (GM00371); type: cell-based; conditions: image compared with fragmented mitochondria in vehicle control

SMILES | mitochondrial morphology (elongation and networking of mitochondria) [1] | % decrease in Macrophage IL-6 Secretion [2] [%] | % decrease in Macrophage TNFα Secretion [2] [%] | mitochondrial morphology (elongation and networking of mitochondria) [3] | mitochondrial morphology (elongation and networking of mitochondria) [4]
COC(=O)[C@H](CSC(=O)CCCN)NC(=O)CCNC(=O)[C@H](O)C(C)(C)CO [Compound 72, methyl (2R)-3-[(4-aminobutanoyl)sulfanyl]-2-[3-[(2R)-2,4-dihydroxy-3,3-dimethylbutanamido]propanamido]propanoate] | elongation and networking of mitochondria promoted | – | – | – | –
CC(=O)NCCCC(=O)SC[C@H](NC(=O)CCNC(=O)[C@H](O)C(C)(C)CO)C(=O)O [Compound 215, (2R)-2-[3-[(2R)-2,4-dihydroxy-3,3-dimethylbutanamido]propanamido]-3-[(4-acetamidobutanoyl)sulfanyl]propanoic acid] | – | ≥30 | ≥30 | – | –
COC(=O)[C@H](CSC(=O)CCCNC(C)=O)NC(=O)CCNC(=O)[C@H](O)C(C)(C)CO [Compound 216, methyl (2R)-2-[3-[(2R)-2,4-dihydroxy-3,3-dimethylbutanamido]propanamido]-3-[(4-acetamidobutanoyl)sulfanyl]propanoate] | elongation and networking of mitochondria promoted | – | – | elongation and networking of mitochondria promoted | –
COC(=O)[C@H](CSC(=O)CCCO)NC(=O)CCNC(=O)[C@H](O)C(C)(C)CO [Compound 697, methyl (2R)-2-[3-[(2R)-2,4-dihydroxy-3,3-dimethylbutanamido]propanamido]-3-[(4-hydroxybutanoyl)sulfanyl]propanoate] | elongation and networking of mitochondria promoted | – | – | elongation and networking of mitochondria promoted | elongation and networking of mitochondria promoted
COC(=O)[C@H](CSC(=O)CCCOC(C)=O)NC(=O)CCNC(=O)[C@H](O)C(C)(C)CO [Compound 698, methyl (2R)-3-[[4-(acetyloxy)butanoyl]sulfanyl]-2-[3-[(2R)-2,4-dihydroxy-3,3-dimethylbutanamido]propanamido]propanoate] | elongation and networking of mitochondria promoted | – | – | elongation and networking of mitochondria promoted | –

— patent US20230093594A1, “PANTETHENOYLCYSTEINE DERIVATIVES AND USES THEREOF” (Comet Therapeutics, Inc., priority 2019, published 2023)
